Test system: Maus
Assay: Tail Suspension Test in the mouse
Type: in vivo
Description: Der "Tail Suspension Test" detektiert antidepressive und anxiolytische Aktivität und folgt der Methode von Porsolt et al. (Porsolt R.D., Bertin A., Jalfre M., Behaviourial despair in mice: a primary screening test for antidepressants. Arch. Int. Pharmacodyn. Ther., 229, 327-336, 1977) und Stéru et al. (Stéru L., .Chermat R., Thierry B, Simon P. The Tail Suspension Test: a new method for screening antidepressants in mice. Psychopharmacology, 85, 367-370, 1985). Nagetiere, die man am Schwanz herabhängen läßt, werden schnell immobil. Antidepressiva verringern die Dauer der Immobilität, während Tranquilantien die Dauer der Immobilität verlängern. Das Verhalten der Tiere wurde über 6 Minuten beobachtet, vorzugsweise mit einem computerisierten Gerät (Itemac-TST) entwickelt von Stéru et al. (1985) (s.o.). Mehrere Mäuse wurden parallel untersucht und die Immobilitätsdauer bestimmt. Dieser Parameter ist analog zu dem im "behavioral despair"-Test (Stéru L., Chermat R., Thierry B., Mico J.A., Lenègre A., Stéru M., Simon P. Porsolt R.D., The automated Tail Suspension Test: a computerized device which differentiates psychotropic drugs. Prog. Neuropsychopharmacol. Exp. Psychiatry, 11, 659-671, 1987) verwendeten. 10-20 Mäuse wurden pro Gruppe untersucht. […]. In diesem Verhaltensmodell führen Antidepressiva wie auch in anderen Verhaltensmodellen zu einer Verkürzung der Immobilitätsphase, während Opioide wie Morphin die Immobilitätsphase verlängern. Beim Vorhandensein beider Wirkkomponenten überlagern sich beide Effekte, so daß nur noch eine geringe Motilitätsveränderung resultiert. Das wurde dadurch aufgehoben, daß die Opiatkomponente durch Vorbehandlung mit Naloxon weggeblockt wurde. Nach der Naloxonvorbehandlung trat die stimulierende Wirkung von (1R,2R)-3-(2-Dimethylaminomethyl-cyclohexyl)-phenol, die ohne Vorbehandlung nur gering war, deutlich in Erscheinung. Darum ist die Substanz, insbesondere in Kombination mit einer Schmerztherapie sehr geeignet. Die Ergebnisse dieser Untersuchungen zusammen mit Referenzsubstanzen sind in der Tabelle 2 zusammengefaßt. Tabelle 2: Wirkung von (1R,2R)-3-(2-Dimethylaminomethyl-cyclohexyl)-phenol, Imipramin und Morphin in "Tail Suspension" Test an der Maus (10 - 20 Tiere/Gruppe)

[1] = 31,6 mg/kg i.p., 30 min before test

For `CN(C)CCCN1c2ccccc2CCc2ccccc21` [Imipramin, reference compound], the “Imobilitätsdauer % Änderung gegenüber der Lösungsmittelkontrolle” value [1] was -61%.
For `CN(C)C[C@@H]1CCCC[C@H]1c1cccc(O)c1` [(1R,2R)-3-(2-Dimethylaminomethyl-cyclohexyl)-phenol], the “Imobilitätsdauer % Änderung gegenüber der Lösungsmittelkontrolle” value (4,64 mg/kg i.p., 30 min before test) was “+6%”, the “Imobilitätsdauer % Änderung gegenüber der Lösungsmittelkontrolle” value (10,0 mg/kg i.p., 30 min before test) was “+12%” and the “Imobilitätsdauer % Änderung gegenüber der Lösungsmittelkontrolle” value (21,5 mg/kg i.p. + 1,0 mg/kg i.v. Naloxon (pretreatment)) was -90%. The “Imobilitätsdauer % Änderung gegenüber der Lösungsmittelkontrolle” value (21,5 mg/kg i.p., 30 min before test) was “+9%”, the “Imobilitätsdauer % Änderung gegenüber der Lösungsmittelkontrolle” value (31,6 mg/kg i.p. + 1,0 mg/kg i.v. Naloxon (pretreatment)) was -85% and the “Imobilitätsdauer % Änderung gegenüber der Lösungsmittelkontrolle” value [1] was -13%.
`C=CCN1CC[C@]23c4c5ccc(O)c4O[C@H]2C(=O)CC[C@@]3(O)[C@H]1C5` [Naloxon, reference compound] was tested, and the “Imobilitätsdauer % Änderung gegenüber der Lösungsmittelkontrolle” value (1,0 mg/kg i.v. alone) was -15%.

Reference: EP1530462B1, “1-PHENYL-2-DIMETHYLAMINOMETHYL CYCLOHEXANE COMPOUNDS USED FOR THE THERAPY OF DEPRESSIVE SYMPTOMS, PAIN, AND INCONTINENCE” (priority 2002, dated 2004)
